The values that follow come from PMC11703153 (bioRxiv, 2025).

Broadly, the Kd is a measure of binding affinity in units of concentration.

Each structure is given as a SMILES string. Like-named read-outs stand apart in the source and are kept apart here.

For this assay, the target named is T1, ChREBP (ChREBPα) (Mus musculus, UniProt Q99MZ3).
T1 sequence (Q99MZ3 43-307): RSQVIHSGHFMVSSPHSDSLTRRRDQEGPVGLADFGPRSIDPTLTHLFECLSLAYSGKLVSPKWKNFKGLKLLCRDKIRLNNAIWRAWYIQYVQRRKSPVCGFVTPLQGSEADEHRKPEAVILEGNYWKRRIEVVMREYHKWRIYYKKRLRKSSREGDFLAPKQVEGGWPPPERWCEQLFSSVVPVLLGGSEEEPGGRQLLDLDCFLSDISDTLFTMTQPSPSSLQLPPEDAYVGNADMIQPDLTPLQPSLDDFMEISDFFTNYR
In words: isothermal titration calorimetry, purified refolded GSM domain, […] °C. It counts as binding. (In general: In ITC the heat of successive injections is recorded.)

For the compound `O=C(CO)COP(=O)(O)O` [DHAP, dihydroxyacetone phosphate], binding was characterised by a dissociation constant (Kd) of 453 µM. As for `O=P(O)(O)OC[C@H]1OC(O)(COP(=O)(O)O)[C@@H](O)[C@@H]1O` (stereo partly shown) [F1,6BP, fructose-1,6-bisphosphate], where the note is “read-out: Kd ± SD”, the Kd amounted to 250 µM. Consider `O=C(CO)[C@@H](O)[C@H](O)[C@H](O)COP(=O)(O)O` [F6P], for which the Kd (read-out: Kd ± SD) was determined as 131 µM. In the case of `O=P(O)(O)OCC(O)CO` (stereo not shown) [G3P, glycerol-3-phosphate], the equilibrium dissociation constant (Kd) (read-out: Kd ± SD) worked out at 17 µM. As to `O=P(O)(O)OC[C@H]1OC(O)[C@H](O)[C@@H](O)[C@@H]1O` (stereo partly shown) [G6P, glucose-6-phosphate], the Kd (read-out: Kd ± SD) is 64.3 µM. `O=CC(O)COP(=O)(O)O` (stereo not shown) [GA3P, glyceraldehyde-3-phosphate]: the equilibrium dissociation constant (Kd) (read-out: Kd ± SD) was 221 µM. As for `OC[C@H]1OC(O)[C@H](O)[C@@H](O)[C@@H]1O` (stereo partly shown) [Glc, glucose], for the setting “read-out: Kd ± SD”, the dissociation constant (Kd) is 270 µM.
